# How the values were obtained:
# Globodera rostochiensis = experiment: Critical concentration test, Globodera rostochiensis (potatoes in infested soil); format: in vivo; conditions: active compound concentrations of 2.5, 5 and 10 ppm in soil; potato root cysts after six weeks; 18° C.
# Procedure: Critical concentration test
# Test nematode: Globodera rostochiensis
# (§1) Solvent: 3 parts by weight of acetone
# (§2) Emulsifier: 1 part by weight of alkylaryl polyglycol ether
# The treated soil is filled into pots, potatoes are planted and the pots are kept at a greenhouse temperature of 18° C.
# Meloidogyne incognita = experiment: Critical concentration test/nematodes, Meloidogyne incognita (lettuce in infested soil); format: in vivo; conditions: active compound concentration of 1.25 ppm-10 ppm in soil; lettuce root galls after four weeks; 27° C.
# Procedure: Critical concentration test/nematodes
# Test nematode: Meloidogyne incognita
# as §1, §2
# The treated soil is filled into pots, lettuce is sown and the pots are kept at a greenhouse temperature of 27° C.
# LD50 on rats (oral) = conditions: rat, in vivo, stomach tube, in polyethylene glycol Lutrol, read-out: LD50 (mg of active compound/kg of body weight)
# Procedure: LD50 values on rats (oral)
# The values were determined in the customary manner.
# [1] = known from U.S. Pat. No. 2,978,479 and Pesticide Manual; cited from earlier work
SMILES,degree of effectiveness (Globodera rostochiensis),degree of effectiveness (Meloidogyne incognita),LD50 (LD50 on rats (oral)),insecticidal and nematicidal properties [1]
O=C(NC1(C(F)(F)F)CC1)c1c(F)cccc1F [Example 33],95%,95%,–,–
CN(CC(F)(F)F)C(=O)c1c(F)cccc1F [Example 6],–,95%,–,–
CC(NC(=O)c1ccccc1Cl)C(F)(F)F (stereo not drawn) [Example 29],95%,95%,–,–
CC(NC(=O)c1c(F)cccc1F)C(F)(F)F (stereo not drawn) [drawing 61],–,–,> 1000 mg/kg,–
"CCOP(=O)(NC(C)C)Oc1ccc(SC)c(C)c1 (stereo not drawn) [fenamiphos, O-ethyl-O-(3-methyl-4-methylthio-phenyl)-N-isopropyl-phosphoric acid ester-amide, reference compound]",–,95%,10 to 20 mg/kg,very good
O=C(NCC(F)(F)F)c1c(F)cccc1F [Example 5],95%,–,–,–
"CC(NC(=O)c1c(F)cccc1F)C(F)(F)F (stereo not drawn) [Example 1, 2,6-difluorobenzoic acid N-(1,1,1-trifluoro-prop-2-yl)-amide]",95%,95%,–,–
